# Legend:
# Tsc2−/− MEFs = assay: Tumour spheroid growth (soft agar) assay in Tsc2−/− MEFs; assay type: cell-based, mouse; details: 10 μM CBD
# Description: (ii) Tsc2−/− p53−/− and Tsc2+/+p53−/− mouse embryonic fibroblast (MEF) cell lines (now referred to as Tsc2−/− and Tsc2+/+, respectively).
# The stock concentration of CBD was made to 20 mM in dimethyl sulfoxide (DMSO). CBD was added to culture media to final concentrations of either 5 μM or 10 μM, as indicated). The final concentration of the DMSO in the cell culture medium was at a maximum level of 0.05% (v/v).
# Two-layered soft agar assays were carried out in 6-well plates. All cell lines were plated in complete DMEM media in 0.35% (v/v) agar at (3*10^5) over a 0.6% (v/v) agar layer. The agar was then overlaid with complete DMEM media and spheroids were grown for 14 days at 37° C. in 5% CO2. Media were changed twice a week and new drug was added to media. Pictures were taken using an inverted AMG EVOS microscope equipped with an Olympus camera. Volume of tumour spheroids was measured using ImageJ software.
# AML 621-101 cells = assay: Wound healing assay in AML cells; assay type: cell-based
# Description: (i) Angiomyolipomas (AML) cells derived from a Tuberous Sclerosis Complex patient (621-101 cell-line), with a known loss of function of TSC2. […] Zeocin™ was purchased from LifeTechnologies (cat no: R25001) and was used to originally generate the stable cell line (by Prof. Lisa Henske) over two weeks of Zeocin™ selection and then for continued maintenance of the cells in tissue culture (at 100 μg/ml).
# Tsc2−/− and Tsc2+/+ cell lines were cultured and maintained in DMEM supplemented with 10% (v/v) FBS and 1% (v/v) penicillin-streptomycin in a humidified incubator (5% CO2 at 37° C.). The AML −/− cell lines were cultured and maintained in DMEM supplemented with 15% (v/v) FBS and 1% (v/v) penicillin-streptomycin in a humidified incubator (5% CO2 at 37° C.). For hypoxia, cells were put into a Binder CB150 hypoxic chamber set at 1% 02 for the indicated time points
# The stock concentration of CBD was made to 20 mM in dimethyl sulfoxide (DMSO). […] The final concentration of the DMSO in the cell culture medium was at a maximum level of 0.05% (v/v).
# Cells were seeded in 60 mm plates and left to reach 100% confluency. Cells were then synchronised in 1% (v/v) FBS DMEM for 24 h and “wounded” with a pipette tip. Dead cells were removed with PBS wash and then subsequently replaced with DMEM (10% (v/v) FBS). […]
structure (smiles),measurement,setting,value
"C=C(C)[C@@H]1CCC(C)=C[C@H]1c1c(O)cc(CCCCC)cc1O [CBD, Cannabidiol]",inhibition of tumour spheroid diameter,Tsc2−/− MEFs,Significance to inhibit tumour spheroid diameter was observed
same,reduction of wound closure,AML 621-101 cells; 20 μM CBD,60%
same,reduction of wound closure,"AML 621-101 cells; 5, 10 and 20 μM CBD, FIG. 1 (B)",effective at reducing wound closure
